In ChEMBL document CHEMBL4616696, “Construction and Evaluation of Molecular Models: Guide and Design of Novel SE Inhibitors” (ACS Med Chem Lett, 2020):
Values after ≈ are worked out from the molar mass of the structure shown. Active and inactive are the calls of the source. The rule behind the calls is not given here.

Experiments:
Candida albicans [1] = experiment: Antifungal activity against fluconazole-resistant Candida albicans 904 assessed as reduction in fungal growth by NCCLS method; format: functional
Candida albicans [2] = experiment: Antifungal activity against Candida albicans ATCC 10231 assessed as reduction in fungal growth by NCCLS method; format: functional
Candida albicans [3] = experiment: Antifungal activity against fluconazole-resistant Candida albicans CaR assessed as reduction in fungal growth by NCCLS method; format: functional
Aspergillus fumigatus = experiment: Antifungal activity against Aspergillus fumigatus KM8001 assessed as reduction in fungal growth by NCCLS method; format: functional
Candida tropicalis = experiment: Antifungal activity against Candida tropicalis ATCC 1369 assessed as reduction in fungal growth by NCCLS method; format: functional
Candida albicans [4] = experiment: Antifungal activity against fluconazole-resistant Candida albicans 17# assessed as reduction in fungal growth by NCCLS method; format: functional
Candida albicans [5] = experiment: Antifungal activity against fluconazole-resistant Candida albicans 632 assessed as reduction in fungal growth by NCCLS method; format: functional
Nakaseomyces glabratus = experiment: Antifungal activity against Candida glabrata ATCC 0001 assessed as reduction in fungal growth by NCCLS method; format: functional
Candida albicans [6] = experiment: Antifungal activity against fluconazole-resistant Candida albicans 901 assessed as reduction in fungal growth by NCCLS method; format: functional
[7] = Stability in human plasma assessed as compound remaining incubated for 60 mins; format: ADME, cell-free; settings: read-out: Stability
Pichia kudriavzevii = experiment: Antifungal activity against Candida krusei ATCC 6258 assessed as reduction in fungal growth by NCCLS method; format: functional
[8] = Stability in human plasma assessed as compound remaining incubated for 120 mins; format: ADME, cell-free; settings: read-out: Stability
[9] = target: T1, Squalene epoxidase ERG1 (Candida albicans) (UniProt Q92206); experiment: Inhibition of SE in Candida albicans ATCC SC5314 assessed as inhibition of ergosterol biosynthesis by measuring eburicol content at 4 ug/ml incubated for 16 hrs by LC-MS analysis; design: scale not given: the % may be the effect or the level left
T1 sequence (whole entry): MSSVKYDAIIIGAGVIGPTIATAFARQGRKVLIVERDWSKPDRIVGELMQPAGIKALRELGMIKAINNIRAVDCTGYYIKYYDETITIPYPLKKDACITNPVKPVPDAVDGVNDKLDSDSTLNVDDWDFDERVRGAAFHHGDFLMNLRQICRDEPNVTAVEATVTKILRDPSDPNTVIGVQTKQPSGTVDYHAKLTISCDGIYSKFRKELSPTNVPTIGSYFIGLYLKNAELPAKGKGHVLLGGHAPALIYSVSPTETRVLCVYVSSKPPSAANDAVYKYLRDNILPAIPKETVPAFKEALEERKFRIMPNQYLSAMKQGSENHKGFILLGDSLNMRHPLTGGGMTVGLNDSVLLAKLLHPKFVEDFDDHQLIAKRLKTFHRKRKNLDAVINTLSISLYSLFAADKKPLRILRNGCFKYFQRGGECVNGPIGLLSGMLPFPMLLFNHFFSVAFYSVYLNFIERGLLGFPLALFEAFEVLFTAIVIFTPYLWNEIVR

Candida albicans [10] = experiment: Antifungal activity against Candida albicans ATCC SC5314 assessed as cell wall disruption at 4 ug/ml measured upto 48 hrs by TEM analysis; format: functional, organism-based
Candida albicans [11] = experiment: Antifungal activity against Candida albicans ATCC SC5314 assessed as cell membrane disruption at 4 ug/ml measured upto 48 hrs by TEM analysis; format: functional, organism-based
Candida albicans [12] = experiment: Antifungal activity against Candida albicans ATCC SC5314 assessed as reduction in fungal growth density at 5 and 50 nmol/ml; format: functional, organism-based
[13] = target: T1, Squalene epoxidase ERG1 (Candida albicans); experiment: Inhibition of SE in Candida albicans ATCC SC5314 assessed as inhibition of ergosterol biosynthesis by measuring unknown sterol content at 4 ug/ml incubated for 16 hrs by LC-MS analysis; design: scale not given: the % may be the effect or the level left
Candida albicans [14] = experiment: Antifungal activity against Candida albicans ATCC SC5314 assessed as exudation of internal materials from cells at 4 ug/ml measured upto 48 hrs by TEM analysis; format: functional, organism-based
Candida albicans [15] = experiment: Antifungal activity against Candida albicans ATCC SC5314 assessed as reduction in cell division at 4 ug/ml measured upto 48 hrs by TEM analysis; format: functional, organism-based
[16] = target: T1, Squalene epoxidase ERG1 (Candida albicans); experiment: Inhibition of SE in Candida albicans ATCC SC5314 assessed as inhibition of ergosterol biosynthesis by measuring ergosterol content at 0.125 ug/ml incubated for 16 hrs by LC-MS analysis; design: scale not given: the % may be the effect or the level left
[17] = target: T1, Squalene epoxidase ERG1 (Candida albicans); experiment: Inhibition of SE in Candida albicans ATCC SC5314 assessed as inhibition of ergosterol biosynthesis by measuring increase in squalene content at 0.125 ug/ml incubated for 16 hrs by LC-MS analysis relative to control; design: scale not given: the % may be the effect or the level left
[18] = target: T1, Squalene epoxidase ERG1 (Candida albicans); experiment: Inhibition of SE in Candida albicans ATCC SC5314 assessed as inhibition of ergosterol biosynthesis by measuring increase in squalene content at 4 ug/ml incubated for 16 hrs by LC-MS analysis relative to control; design: scale not given: the % may be the effect or the level left
[19] = target: T1, Squalene epoxidase ERG1 (Candida albicans); experiment: Inhibition of SE in Candida albicans ATCC SC5314 assessed as inhibition of ergosterol biosynthesis by measuring ergosterol content at 4 ug/ml incubated for 16 hrs by LC-MS analysis; design: scale not given: the % may be the effect or the level left
[20] = target: T1, Squalene epoxidase ERG1 (Candida albicans); experiment: Inhibition of SE in Candida albicans ATCC SC5314 assessed as inhibition of ergosterol biosynthesis by measuring unknown sterol content at 0.5 ug/ml incubated for 16 hrs by LC-MS analysis; design: scale not given: the % may be the effect or the level left
[21] = target: T1, Squalene epoxidase ERG1 (Candida albicans); experiment: Inhibition of SE in Candida albicans ATCC SC5314 assessed as inhibition of ergosterol biosynthesis by measuring unknown sterol content at 0.125 ug/ml incubated for 16 hrs by LC-MS analysis; design: scale not given: the % may be the effect or the level left
[22] = target: T1, Squalene epoxidase ERG1 (Candida albicans); experiment: Inhibition of SE in Candida albicans ATCC SC5314 assessed as inhibition of ergosterol biosynthesis by measuring ergosterol content at 0.5 ug/ml incubated for 16 hrs by LC-MS analysis; design: scale not given: the % may be the effect or the level left
[23] = target: T1, Squalene epoxidase ERG1 (Candida albicans); experiment: Inhibition of SE in Candida albicans ATCC SC5314 assessed as inhibition of ergosterol biosynthesis by measuring eburicol content at 0.5 ug/ml incubated for 16 hrs by LC-MS analysis; design: scale not given: the % may be the effect or the level left
[24] = target: T1, Squalene epoxidase ERG1 (Candida albicans); experiment: Inhibition of SE in Candida albicans ATCC SC5314 assessed as inhibition of ergosterol biosynthesis by measuring increase in squalene content at 0.5 ug/ml incubated for 16 hrs by LC-MS analysis relative to control; design: scale not given: the % may be the effect or the level left

## CN(CC(=O)NCc1ccccc1)C(=O)c1cccc2c1OCCO2
Candida albicans [1]
  MIC: 8 µg/mL (≈ 23.5 µM)
Candida albicans [2]
  MIC: 0.25 µg/mL (≈ 0.734 µM)
Candida albicans [3]
  MIC: 4 µg/mL (≈ 11.8 µM)
Aspergillus fumigatus
  MIC: 8 µg/mL (≈ 23.5 µM)
Candida tropicalis
  MIC: 0.5 µg/mL (≈ 1.47 µM)
Candida albicans [4]
  MIC: > 16 µg/mL
Candida albicans [5]
  MIC: > 16 µg/mL
Nakaseomyces glabratus
  MIC: 0.25 µg/mL (≈ 0.734 µM)
Candida albicans [6]
  MIC: > 16 µg/mL
[7]
  remaining at 1 h: 87.3%
Pichia kudriavzevii
  MIC: 0.25 µg/mL (≈ 0.734 µM)
[8]
  remaining at 2 h: 83.5%

## CN(CC(=O)NCc1ccccc1)C(=O)c1cccc2ccccc12
[9]
  Activity: 2.3%
Candida albicans [1]
  MIC: > 16 µg/mL
Candida albicans [2]
  MIC: 0.125 µg/mL (≈ 0.376 µM)
Candida albicans [10]
  Activity: Active
Candida albicans [11]
  Activity: Active
Candida albicans [3]
  MIC: 4 µg/mL (≈ 12 µM)
Aspergillus fumigatus
  MIC: 4 µg/mL (≈ 12 µM)
Candida albicans [12]
  Activity: Active
[13]
  Activity: 7.1%
Candida tropicalis
  MIC: 0.5 µg/mL (≈ 1.5 µM)
Candida albicans [14]
  Activity: Active
Candida albicans [15]
  Activity: Active
[16]
  Activity: 87.4%
[17]
  Activity: 9.8%
Candida albicans [4]
  MIC: 4 µg/mL (≈ 12 µM)
Candida albicans [5]
  MIC: 8 µg/mL (≈ 24.1 µM)
[18]
  Activity: 58.9%
Nakaseomyces glabratus
  MIC: 0.25 µg/mL (≈ 0.752 µM)
[19]
  Activity: 31.7%
[20]
  Activity: 5%
Candida albicans [6]
  MIC: 4 µg/mL (≈ 12 µM)
[21]
  Activity: 2.8%
[22]
  Activity: 63.9%
[7]
  remaining at 1 h: 94.5%
[23]
  Activity: 1.6%
Pichia kudriavzevii
  MIC: 0.125 µg/mL (≈ 0.376 µM)
[8]
  remaining at 2 h: 91.6%
[24]
  Activity: 29.5%

## OC(Cn1cncn1)(Cn1cncn1)c1ccc(F)cc1F [FLUCONAZOLE]
Candida albicans [1]
  MIC: > 16 µg/mL
Candida albicans [3]
  MIC: > 16 µg/mL
Candida albicans [4]
  MIC: > 16 µg/mL
Candida albicans [5]
  MIC: > 16 µg/mL
Candida albicans [6]
  MIC: > 16 µg/mL

## CN(CC(=O)NCc1ccccc1)C(=O)c1ccc2ccccc2c1
Candida albicans [2]
  MIC: 0.5 µg/mL (≈ 1.5 µM)
Aspergillus fumigatus
  MIC: 8 µg/mL (≈ 24.1 µM)
Candida tropicalis
  MIC: 0.25 µg/mL (≈ 0.752 µM)
Nakaseomyces glabratus
  MIC: 0.25 µg/mL (≈ 0.752 µM)
Pichia kudriavzevii
  MIC: 0.5 µg/mL (≈ 1.5 µM)

## CN(CC(=O)NCc1ccccc1)C(=O)c1ccc2c(c1)OCCO2
Candida albicans [2]
  MIC: 0.5 µg/mL (≈ 1.47 µM)
Aspergillus fumigatus
  MIC: > 16 µg/mL
Candida tropicalis
  MIC: 0.5 µg/mL (≈ 1.47 µM)
Nakaseomyces glabratus
  MIC: 2 µg/mL (≈ 5.88 µM)
Pichia kudriavzevii
  MIC: 0.5 µg/mL (≈ 1.47 µM)

## CN(CC(=O)Nc1ccccc1)C(=O)c1ccc2c(c1)OCCO2
Candida albicans [2]
  MIC: 1 µg/mL (≈ 3.06 µM)
Aspergillus fumigatus
  MIC: 8 µg/mL (≈ 24.5 µM)
Candida tropicalis
  MIC: 0.5 µg/mL (≈ 1.53 µM)
Nakaseomyces glabratus
  MIC: 0.5 µg/mL (≈ 1.53 µM)
Pichia kudriavzevii
  MIC: 2 µg/mL (≈ 6.13 µM)

## CN(CC(=O)Nc1ccccc1)C(=O)c1cccc2c1OCCO2
Candida albicans [2]
  MIC: 0.5 µg/mL (≈ 1.53 µM)
Aspergillus fumigatus
  MIC: > 16 µg/mL
Candida tropicalis
  MIC: 1 µg/mL (≈ 3.06 µM)
Nakaseomyces glabratus
  MIC: 1 µg/mL (≈ 3.06 µM)
Pichia kudriavzevii
  MIC: 0.5 µg/mL (≈ 1.53 µM)

## CN(C/C=C/c1ccccc1)Cc1cccc2ccccc12 [NAFTIFINE]
[9]
  Activity: 1.7%
Candida albicans [1]
  MIC: 8 µg/mL (≈ 27.8 µM)
Candida albicans [2]
  MIC: 0.5 µg/mL (≈ 1.74 µM)
Candida albicans [3]
  MIC: 4 µg/mL (≈ 13.9 µM)
Aspergillus fumigatus
  MIC: > 16 µg/mL
[13]
  Activity: 5.4%
Candida tropicalis
  MIC: 0.5 µg/mL (≈ 1.74 µM)
[16]
  Activity: 83.6%
[17]
  Activity: 14.8%
Candida albicans [4]
  MIC: 8 µg/mL (≈ 27.8 µM)
Candida albicans [5]
  MIC: 8 µg/mL (≈ 27.8 µM)
[18]
  Activity: 64.5%
Nakaseomyces glabratus
  MIC: 0.5 µg/mL (≈ 1.74 µM)
[19]
  Activity: 28.4%
[20]
  Activity: 4.9%
Candida albicans [6]
  MIC: > 16 µg/mL
[21]
  Activity: 1.6%
[22]
  Activity: 62.9%
[23]
  Activity: 0.7%
Pichia kudriavzevii
  MIC: 1 µg/mL (≈ 3.48 µM)
[24]
  Activity: 31.5%

## CN(CC(=O)Nc1ccccc1)C(=O)c1ccc2ccccc2c1
Candida albicans [2]
  MIC: 0.5 µg/mL (≈ 1.57 µM)
Aspergillus fumigatus
  MIC: > 16 µg/mL
Candida tropicalis
  MIC: 0.5 µg/mL (≈ 1.57 µM)
Nakaseomyces glabratus
  MIC: 2 µg/mL (≈ 6.28 µM)
Pichia kudriavzevii
  MIC: 1 µg/mL (≈ 3.14 µM)

## CN(CC(=O)Nc1ccccc1)C(=O)c1cccc2ccccc12
Candida albicans [1]
  MIC: > 16 µg/mL
Candida albicans [2]
  MIC: 0.25 µg/mL (≈ 0.785 µM)
Candida albicans [3]
  MIC: 8 µg/mL (≈ 25.1 µM)
Aspergillus fumigatus
  MIC: 8 µg/mL (≈ 25.1 µM)
Candida tropicalis
  MIC: 0.5 µg/mL (≈ 1.57 µM)
Candida albicans [4]
  MIC: > 16 µg/mL
Candida albicans [5]
  MIC: > 16 µg/mL
Nakaseomyces glabratus
  MIC: 0.5 µg/mL (≈ 1.57 µM)
Candida albicans [6]
  MIC: 4 µg/mL (≈ 12.6 µM)
Pichia kudriavzevii
  MIC: 0.25 µg/mL (≈ 0.785 µM)
